Assay results from the CheMixHub viscosity set.

Assay: xn = mol fraction of the nth substance listed

COC(=O)CCCCC(=O)OC + CCC(C)=O
100 kPa
Conditions	viscosity [mPa·s]
308.15 K, x1 = 0.2002	0.5865
318.15 K, x1 = 0.3002	0.6465
323.15 K, x1 = 0.4004	0.7425

C1CCCC1 + CCC(C)O
101 kPa
Conditions	viscosity [mPa·s]
298.15 K, x1 = 0.0967	2.238
298.15 K, x1 = 0.1932	1.702
298.15 K, x1 = 0.2298	1.578
298.15 K, x1 = 0.2524	1.454
298.15 K, x1 = 0.3078	1.253
298.15 K, x1 = 0.3627	1.081
298.15 K, x1 = 0.4215	0.936
298.15 K, x1 = 0.5078	0.7825
298.15 K, x1 = 0.5772	0.6742
298.15 K, x1 = 0.7238	0.5339
298.15 K, x1 = 0.8256	0.4728
298.15 K, x1 = 0.9298	0.4297
308.15 K, x1 = 0.0075	2.095
308.15 K, x1 = 0.047	1.917
308.15 K, x1 = 0.0598	1.7
308.15 K, x1 = 0.0917	1.552
308.15 K, x1 = 0.107	1.509
308.15 K, x1 = 0.2217	1.298
308.15 K, x1 = 0.2626	1.177
308.15 K, x1 = 0.3099	1.049
308.15 K, x1 = 0.3653	0.8998
308.15 K, x1 = 0.4219	0.8068
308.15 K, x1 = 0.496	0.6842
308.15 K, x1 = 0.5716	0.5943
308.15 K, x1 = 0.6554	0.5084
308.15 K, x1 = 0.7457	0.4481
308.15 K, x1 = 0.845	0.4249
308.15 K, x1 = 0.9255	0.3819
308.15 K, x1 = 0.9753	0.3779

CN1CCCC1=O + CCC(C)O
viscosity [mPa·s], 101.3 kPa
Conditions	x2 = 0.1049	x2 = 0.4019	x2 = 0.5003
293.15 K	1.815	–	–
313.15 K	–	1.285	1.285

CCCCC(CC)C(=O)OCC(COC(=O)C(CC)CCCC)(COC(=O)C(CC)CCCC)COC(=O)C(CC)CCCC (configuration not stated) + CCCCC(=O)OCC(COC(=O)CCCC)(COC(=O)CCCC)COC(=O)CCCC
Conditions	viscosity [mPa·s]
313.15 K, 100 kPa, x1 = 0.6911	32.3

OCc1ccccc1 + CCCCCC
viscosity [mPa·s], 101.3 kPa
Conditions	303.15 K	313.15 K	323.15 K
x1 = 0.0101	0.303	0.284	0.254
x2 = 0.0312	4.044	3.013	2.36
x2 = 0.0645	3.832	2.754	2.173
x2 = 0.0976	3.35	2.394	1.974
x2 = 0.1313	3.119	2.256	1.79
x2 = 0.1653	2.649	2.004	1.616
x2 = 0.2056	2.328	1.827	1.455
x2 = 0.255	1.972	1.615	1.327
x2 = 0.8792	0.364	0.335	0.307
x2 = 0.955	0.326	0.302	0.268
x2 = 0.9699	0.32	0.3	0.262
x2 = 0.9799	0.312	0.292	0.258

CCCCC(CC)C(=O)OCC(COC(=O)C(CC)CCCC)(COC(=O)C(CC)CCCC)COC(=O)C(CC)CCCC (configuration not stated) + CCCCCCC(=O)OCC(COC(=O)CCCCCC)(COC(=O)CCCCCC)COC(=O)CCCCCC
100 kPa, x1 = 0.667
Conditions	viscosity [mPa·s]
303.15 K	51.7
313.15 K	32.6
323.15 K	20.7

CC(C)(C)C1CCCCC1 + CCCCCCCCCCCC
viscosity [mPa·s], 102 kPa
Conditions	x1 = 0.1003	x1 = 0.2004	x1 = 0.3011	x1 = 0.4005	x1 = 0.5001	x1 = 0.601	x1 = 0.7001	x1 = 0.8003	x1 = 0.8991
293.15 K	1.5	1.5	1.5	1.51	1.53	1.54	1.57	1.6	1.64
303.15 K	1.26	1.26	1.27	1.27	1.28	1.3	1.32	1.34	1.38
313.15 K	1.07	1.07	1.08	1.09	1.09	1.11	1.13	1.15	1.17
323.15 K	0.92	0.925	0.933	0.939	0.946	0.958	0.975	0.992	1.01

CC(C)(C)C1CCCCC1 + CCCCCCCCCCCCCCCC
viscosity [mPa·s], 102 kPa
Conditions	x1 = 0.1004	x1 = 0.2003	x1 = 0.3003	x1 = 0.4016	x1 = 0.5003	x1 = 0.6001	x1 = 0.7002	x1 = 0.8001	x1 = 0.8999
293.15 K	3.31	3.13	2.95	2.77	2.59	2.41	2.23	2.05	1.87
303.15 K	2.63	2.51	2.37	2.24	2.1	1.97	1.83	1.7	1.56
313.15 K	2.15	2.05	1.95	1.85	1.75	1.64	1.54	1.43	1.32
323.15 K	1.78	1.71	1.63	1.56	1.48	1.39	1.31	1.22	1.14

C1CCCC1 + CCCCCCCO
101.3 kPa
Conditions	viscosity [mPa·s]
298.15 K, x1 = 0.0352	5.482
298.15 K, x1 = 0.0593	5.221
298.15 K, x1 = 0.0988	4.844
298.15 K, x1 = 0.1481	4.446
298.15 K, x1 = 0.2145	3.924
298.15 K, x1 = 0.2684	3.481
298.15 K, x1 = 0.3065	3.175
298.15 K, x1 = 0.3655	2.729
298.15 K, x1 = 0.4052	2.452
298.15 K, x1 = 0.4333	2.255
298.15 K, x1 = 0.4668	2.039
298.15 K, x1 = 0.4932	1.889
298.15 K, x1 = 0.5131	1.773
298.15 K, x1 = 0.5247	1.71
298.15 K, x1 = 0.5389	1.629
298.15 K, x1 = 0.5545	1.546
298.15 K, x1 = 0.5728	1.45
298.15 K, x1 = 0.5972	1.348
298.15 K, x1 = 0.612	1.272
298.15 K, x1 = 0.6459	1.141
298.15 K, x1 = 0.6823	1.009
298.15 K, x1 = 0.7149	0.909
298.15 K, x1 = 0.7429	0.819
298.15 K, x1 = 0.7801	0.734
298.15 K, x1 = 0.8099	0.672
298.15 K, x1 = 0.8367	0.622
298.15 K, x1 = 0.876	0.559
298.15 K, x1 = 0.9139	0.507
298.15 K, x1 = 0.9562	0.455
298.15 K, x2 = 0.0123	0.422
308.15 K, x1 = 0.0706	3.806
308.15 K, x1 = 0.107	3.567
308.15 K, x1 = 0.2112	2.906
308.15 K, x1 = 0.2927	2.434
308.15 K, x1 = 0.3502	2.124
308.15 K, x1 = 0.3903	1.904
308.15 K, x1 = 0.4235	1.762
308.15 K, x1 = 0.4744	1.536
308.15 K, x1 = 0.5101	1.397
308.15 K, x1 = 0.5124	1.388
308.15 K, x1 = 0.5273	1.333
308.15 K, x1 = 0.5473	1.254
308.15 K, x1 = 0.5733	1.164
308.15 K, x1 = 0.5957	1.094
308.15 K, x1 = 0.6126	1.033
308.15 K, x1 = 0.6337	0.973
308.15 K, x1 = 0.6691	0.873
308.15 K, x1 = 0.6936	0.817
308.15 K, x1 = 0.7266	0.741
308.15 K, x1 = 0.7759	0.645
308.15 K, x1 = 0.8235	0.567
308.15 K, x1 = 0.8612	0.513
308.15 K, x1 = 0.9001	0.465
308.15 K, x1 = 0.9538	0.407
318.15 K, x1 = 0.0663	3.159
318.15 K, x1 = 0.1607	2.659
318.15 K, x1 = 0.2747	2.102
318.15 K, x1 = 0.3487	1.774
318.15 K, x1 = 0.4227	1.477
318.15 K, x1 = 0.4685	1.326
318.15 K, x1 = 0.504	1.204
318.15 K, x1 = 0.5407	1.097
318.15 K, x1 = 0.5754	1.006
318.15 K, x1 = 0.6027	0.936
318.15 K, x1 = 0.6281	0.877
318.15 K, x1 = 0.6529	0.814
318.15 K, x1 = 0.6898	0.743
318.15 K, x1 = 0.7214	0.681
318.15 K, x1 = 0.7581	0.617
318.15 K, x1 = 0.8025	0.549
318.15 K, x1 = 0.8554	0.475
318.15 K, x1 = 0.9198	0.402
318.15 K, x1 = 0.9672	0.359

NCCO + CCCCCCO
viscosity [mPa·s], 101.3 kPa
Conditions	x1 = 0.1	x1 = 0.2	x1 = 0.3	x1 = 0.4	x1 = 0.5	x1 = 0.6	x1 = 0.7	x1 = 0.8	x1 = 0.9
303.15 K	4.07	4.48	5.04	5.68	6.54	7.62	8.84	10.4	12.3
313.15 K	3.08	3.34	3.72	4.15	4.7	5.41	6.17	7.18	8.31
323.15 K	2.37	2.57	2.84	3.13	3.51	3.98	4.49	5.16	5.88

C1CCCC1 + CCCCCO
101.3 kPa
Conditions	viscosity [mPa·s]
298.15 K, x1 = 0.0498	3.211
298.15 K, x1 = 0.0796	3.013
298.15 K, x1 = 0.1294	2.679
298.15 K, x1 = 0.1855	2.343
298.15 K, x1 = 0.2386	2.037
298.15 K, x1 = 0.2579	1.924
298.15 K, x1 = 0.2645	1.883
298.15 K, x1 = 0.2919	1.755
298.15 K, x1 = 0.3012	1.709
298.15 K, x1 = 0.351	1.481
298.15 K, x1 = 0.3712	1.406
298.15 K, x1 = 0.4221	1.221
298.15 K, x1 = 0.4544	1.118
298.15 K, x1 = 0.5073	0.992
298.15 K, x1 = 0.5388	0.926
298.15 K, x1 = 0.569	0.869
298.15 K, x1 = 0.596	0.827
298.15 K, x1 = 0.6189	0.79
298.15 K, x1 = 0.6343	0.771
298.15 K, x1 = 0.6621	0.739
298.15 K, x1 = 0.6893	0.707
298.15 K, x1 = 0.7282	0.685
298.15 K, x1 = 0.774	0.663
298.15 K, x1 = 0.8207	0.613
298.15 K, x1 = 0.8699	0.566
298.15 K, x1 = 0.9192	0.515
298.15 K, x1 = 0.9698	0.447
308.15 K, x1 = 0.0419	2.415
308.15 K, x1 = 0.1319	2.057
308.15 K, x1 = 0.2149	1.783
308.15 K, x1 = 0.2986	1.542
308.15 K, x1 = 0.3735	1.35
308.15 K, x1 = 0.4	1.287
308.15 K, x1 = 0.4437	1.19
308.15 K, x1 = 0.4804	1.118
308.15 K, x1 = 0.5152	1.049
308.15 K, x1 = 0.6882	0.817
308.15 K, x1 = 0.7025	0.798
308.15 K, x1 = 0.7196	0.781
308.15 K, x1 = 0.7454	0.752
308.15 K, x1 = 0.7726	0.727
308.15 K, x1 = 0.809	0.681
308.15 K, x1 = 0.8542	0.617
308.15 K, x1 = 0.9094	0.517
308.15 K, x1 = 0.955	0.418
318.15 K, x1 = 0.1213	1.768
318.15 K, x1 = 0.1891	1.573
318.15 K, x1 = 0.2652	1.36
318.15 K, x1 = 0.34	1.171
318.15 K, x1 = 0.4015	1.035
318.15 K, x1 = 0.4409	0.953
318.15 K, x1 = 0.4863	0.864
318.15 K, x1 = 0.5184	0.807
318.15 K, x1 = 0.5402	0.775
318.15 K, x1 = 0.5588	0.74
318.15 K, x1 = 0.6063	0.67
318.15 K, x1 = 0.665	0.593
318.15 K, x1 = 0.7127	0.537
318.15 K, x1 = 0.7882	0.467
318.15 K, x1 = 0.8688	0.405
318.15 K, x1 = 0.9451	0.359

C=CCc1ccc2c(c1)OCO2 + CCCCCOC(C)=O
298.15 K, 101 kPa
Conditions	viscosity [mPa·s]
x1 = 0.053	0.833
x1 = 0.232	1.01

c1ccc(-c2ccccc2)cc1 + CCCCCOC(C)=O
298.15 K, 101 kPa
Conditions	viscosity [mPa·s]
x1 = 0.0249	0.803
x1 = 0.0367	0.8121
